US9593149B2, “Amylin and calcitonin receptor agonist” (Novo Nordisk A/S, priority 2014, dated 2017)
Peptide text beside a SMILES is read from it. * marks the point of attachment. C18 diacid = O=C(O)CCCCCCCCCCCCCCCCC(=O)*

Experiments:
[1] = Assay (XV) subcutaneous PK in LYD-pigs, co-formulated or co-dosed with liraglutide; assay type: in vivo; settings: for AUC/D / Cmax/D / T½: LYD-pigs s.c.
Method: The studies were performed in female LYD pigs of SPF origin delivered from Lars Jonson, Hillerødvej 70, Lynge.
Before the animals arrived, the animal rooms and pens were cleaned and disinfected with Virkon S. During the study, the animal rooms were cleaned and washed regularly.
The pigs were group housed during the acclimatisation period. The pigs were fitted with a central venous catheter while under anaesthesia and after the single housed after catheterization in pens ≧3.1 m^2 with straw as bedding. The temperature in the rooms was set at 20−23° C. and the relative humidity to 30-70%. The rooms were illuminated to give a cycle of 12 hours light and 12 hours darkness. Light was on from 07.00 to 19.00 h.
The formulations was prepared similarly and filled in cartridges in all cases.
The animals were dosed subcutaneously as follows.
The s.c. dosing was performed in 4 mm depth, in a site of injection which was secured on beforehand by ultrasound to avoid muscular tissue or heavy vascularization. Dosing was made using NovoPen®4 and needle Novofine 28 G and a needle stopper to ensure 4 mm depth of injection. The needle was kept in the subcutis for 10 seconds after the injection to secure deposition of compound. […] The co-formulation was administered as one injection. Study was performed as a cross over study with adequate wash out between dosings.
Blood was sampled at predefined time points for up till 15 days post dosing to adequately cover the full plasma concentration-time profile of the mimylin derivative. Blood samples were drawn from a central venous catheter to jugularis made through the catheter which was afterwards flushed with 10 ml 0.9% NaCl.
For each blood sampling time point approximately 0.8 mL of whole blood was collected in a 1.5 mL EDTA coated tube, and the tube was gently turned to allowing mixing of the sample with the anticoagulant. Blood samples (for example 0.8 mL) were collected in EDTA buffer (8 mM) and then centrifuged at 4° C. and 2000 G for 10 minutes. Plasma was pipetted into Micronic tubes on dry ice, and kept at −20° C. until analysis.
Individual plasma concentration-time profiles were analysed by a non-compartmental model in Phoenix WinNonlin version 6.3 (Pharsight Inc., Mountain View, Calif., USA).
The area under the plasma concentration versus time curve (AUC, [time×concentration]) was calculated (by the Pharsight programme) after subcutaneous administration, typically until 240-288 hours post dosing, or until last measured concentration. The AUC was calculated and given as AUCinf-pred and dose normalized.
Results of co-formulation studies in LYD-pigs are summarized below

[2] = Assay (XVII) T½ and subcutaneous bioavailability in Beagle dogs; assay type: in vivo
Method: The area under the plasma concentration versus time curve (AUC, [time×concentration]) was calculated (by the Pharsight programme) after both subcutaneous administration and intravenous administration, typically until 240-288 hours post dosing, or until last measured concentration. The AUC was calculated by extrapolating to infinity and dose normalized. The absolute bioavailability (F %) was then calculated based on the dose-corrected AUC values, namely as AUC/Dsc divided by AUC/Div×100, where Dsc is the subcutaneous dose per kg, and Div the dose per kg given intravenously. Assay (XVII)—Determination of T½ and Subcutaneous Bioavailability in Beagle Dogs […]
By protraction is meant the prolongation of the time in the body and thereby the time of action of the mimylin derivatives. This was done in PK studies, where the terminal half-life of the derivative in question was determined following i.v. administration. By terminal half-life is generally meant the period of time it takes to halve a certain plasma concentration, measured after the initial distribution phase. […]
The plasma concentration of the respective mimylin derivative was analysed using LC-MS. Individual plasma concentration-time profiles were analysed by a non-compartmental model in Phoenix WinNonlin version 6.3 (Pharsight Inc., Mountain View, Calif., USA). […]

[3] = Co-formulation liraglutide + Ex #2

For `CC(C)C[C@H](NC(=O)[C@H](C)NC(=O)[C@H](C)NC(=O)[C@@H](NC(=O)[C@H](CO)NC(=O)[C@H](CC(C)C)NC(=O)[C@H](CCC(=O)O)NC(=O)[C@H](CO)NC(=O)[C@H](C)NC(=O)[C@H](CCC(=O)O)NC(=O)CCCCCCCCCCCCCCCCC(=O)O)[C@@H](C)O)C(=O)NCC(=O)N[C@@H](CCCNC(=N)N)C(=O)N[C@@H](CC(C)C)C(=O)N[C@@H](CO)C(=O)N[C@@H](C)C(=O)N[C@@H](CCC(=O)O)C(=O)N[C@@H](CC(C)C)C(=O)N[C@@H](Cc1cnc[nH]1)C(=O)N[C@@H](CCC(=O)O)C(=O)N[C@@H](CC(C)C)C(=O)N[C@@H](C)C(=O)N[C@H](C(=O)N[C@@H](CC(C)C)C(=O)N1CCC[C@H]1C(=O)N[C@@H](CCCNC(=N)N)C(=O)N[C@H](C(=O)N[C@@H](CCC(=O)O)C(=O)N[C@H](C(=O)NCC(=O)N1CCC[C@H]1C(=O)N[C@@H](CCC(=O)O)C(=O)N[C@@H](CO)C(=O)N1CCC[C@H]1C(N)=O)[C@@H](C)O)[C@@H](C)O)[C@@H](C)O` [Ex. #2, [N-terminal(C18 diacid)]mimylin] ({C18 diacid}-EASELSTAALGRLSAELHELATLPRTETGPESP-NH2), which “AUC/D” value ([1]; Co-dosing liraglutide + Ex #2) is on record?
The value was 712 kg·h/L.

What about the “Cmax/D” value ([1]; Co-dosing liraglutide + Ex #2) of the same molecule?
The value was 6.9 kg/L.

And the “T½” value ([1]; Co-dosing liraglutide + Ex #2)?
Its value is 67 h.

And the “AUC/D” value [1, 3]?
Its value is 732 kg·h/L.

And the “Cmax/D” value [1, 3]?
Its value is 5.8 kg/L.

What about the “T½” value [1, 3] of the same molecule?
The value was 67 h.

What about the “effect on PK profile of the co-formulated peptide” value ([1]; administered as co-formulations to LYD pigs) of the same molecule?
Its value is “do not affect the PK profile of liraglutide”.

What about the “Subcutaneous bioavailability (%)” value ([2]; Beagle dogs) of the same molecule?
Its value is 98%.

What about the “Beagle dogs iv PK, t½” value ([2]; i.v., harmonic mean, n = 2) of the same molecule?
Its value is 95 h.
